Assay results from patent US9364476B2, “Methods of treating a Bruton's Tyrosine Kinase disease or disorder” (Celgene Avilomics Research, Inc., priority 2011, dated 2016).
“And” between values parts separate entries of the source, which are not always exact repeats. Equal entries are not always repeated. Where two headings read alike, the source gives them in different places.

Key:
[1] = test system: relapsed or refractory B-NHL, CLL/SLL, or WM; experiment: Dose escalation study: disease progression and treatment duration; type: in vivo, human
Procedure: (§1) Intrapatient dose escalation was allowed.
Subjects with CLL experiencing nodal response with lymphocytosis (which may be related to drug-mediated lymphocyte redistribution) were also eligible for additional treatment. Subjects with WM with increasing serum Immunoglobulin M (“IgM”) levels at the end of the first 28-day cycle were also evaluated for lymphadenopathy/organomegaly and marrow infiltration. Investigators were permitted to use judgment in determining whether to continue these subjects into the second 28-day cycle if there was a discordant response between increased IgM and stable or decreased lymphadenopathy/organomegaly and marrow infiltration.

[2] = Plasma API levels by LC-MS-MS (PK); type: in vivo, human
Procedure: Plasma API levels were assessed by LC-MS-MS.

Solubility of the API = type: physicochemical
[3] = CLL expansion cohort C: DLT; type: in vivo, human; details: 24 subjects, 750 mg po QD
Procedure: (§2) 24 subjects were enrolled into the CLL expansion cohort C and were assessed for safety, tolerability, DLT, PK, PD and disease response. Each subject was evaluated prior to enrollment to ensure that minimum hematological criteria were satisfied: […]

B-NHL patients = experiment: Dose escalation study: lymph node size in B-NHL patients; type: in vivo, human; details: dose escalation cohorts
Source text: The doses indicated refer to the patient's starting dose. The numbers at the top of each bar indicate the number of cycles completed for each subject as of the last available lymph node measurement.

[4] = Environmental stability (heat, acid, base); type: physicochemical
CLL patients = experiment: Dose escalation study: lymph node size and absolute lymphocyte count in CLL patients; type: in vivo, human
Source text: FIG. 6 depicts the change in lymph node size in CLL patients with available lymph node assessment, twelve (12) of whom are from cohorts 1-5. These patients have experienced some degree of lymph node reduction: 2/12 patients have experienced nodal response (>50% reduction); 6/12 patients have experienced between 25 and 50% reduction over the treatment and follow-up periods indicated in the figure. The doses indicated refer to the patient's starting dose. The numbers at the top of each bar indicate the number of cycles completed for each subject as of the last available lymph node measurement.
FIG. 7 depicts the change in absolute lymphocyte count (ALC) in CLL patients. As of Sep. […] All CLL subjects with follow-up through cycle 1 at all dose levels are shown. Subjects treated with 750 mg or higher are indicated under the dotted line.

[5] = test system: Relapsed and/or refractory CLL/SLL; experiment: CLL expansion cohort C: disease response; type: in vivo, human
Procedure: After completion of observation for DLTs in Example 1, the accumulated safety, PK, and PD data from Example 1 were evaluated to select a preliminary recommended Phase 2 dose for administration to additional subjects enrolled into an independent and non-randomized diagnosis-specific expansion cohorts in the Diagnosis Specific Expansion Cohorts study. • Cohort A: Relapsed and/or refractory diffuse large B-cell lymphoma (DLBCL); • Cohort B: Relapsed and/or refractory indolent and mantle B-cell lymphomas, Waldenstrom's macroglobulinemia, and other B lymphoproliferative disorders of uncertain malignant potential (at least 10 of the 24 enrollment slots will be reserved for subjects with mantle cell lymphoma); and • Cohort C: Relapsed and/or refractory CLL/SLL.
as §2

[6] = for maximum tolerated dose (MTD): dose escalation cohorts, besylate
Source text: as §1
Enrollment for Cohorts 1-5 was not restricted or contingent on the basis of specific B-NHL/CLL/WM diagnosis. […] For example, the physician-investigator may elect to rest a patient due to occurrence or recurrence of adverse events. […] In this context, treatment duration refers to the time a patient is enrolled in the study, inclusive of all rest periods, until treatment is discontinued.
Six (6) subjects diagnosed with CLL and six (6) patients diagnosed with B-NHL were enrolled in each of Cohorts 6A and 6B. Cohorts 6A and 6B were enrolled concurrently, and if meeting the requirements for continued escalation, Cohorts 7A and 7B will be enrolled and evaluated.
Hematologic DLTs included Grade 4 anemia or thrombocytopenia, Grade 4 neutropenia greater than 5 days despite granulocyte colony-stimulating factor (G-CSF) and Grade 3 or higher febrile neutropenia.
Dose escalation will continue until a DLT is observed. […] One key objective for the dose escalation portion of the study was to identify the maximum tolerated dose (MTD) and Optimal Biological Effect dose (OBE). The OBE was defined as: […]

[7] = biological target: Spleen tyrosine kinase (Syk) (Homo sapiens, UniProt P43405); details: DLBCL, CLL, and mantle cell lymphoma; cited from earlier work
[8] = twelve CLL patients from cohorts 1-5 with lymph node assessment
[9] = eleven patients from Expansion Cohort C, 750 mg QD
[10] = 5/21 subjects, regardless of dose
[11] = cohort 5, 750 mg QD, initial, through May 22, 2012
[12] = cohorts 1-5 through May 22, 2012

SMILES: C=CC(=O)Nc1cccc(Nc2nc(Nc3ccc(OCCOC)cc3)ncc2F)c1.O=S(=O)(O)c1ccccc1 [N-(3-(5-fluoro-2-(4-(2-methoxyethoxy)phenylamino)pyrimidin-4-ylamino)phenyl)acrylamide besylate]
- DLT or disease progression ([1]; cohort 1 (125 mg), three CLL subjects): None of the subjects showed DLT or disease progression
- progressive disease after ([1]; cohort 1 (starting 125 mg QD), three CLL patients, one value per patient, listed as API, besylate): 187 days and 319 days and 332 days
- progressive disease after ([1]; cohort 2 (250 mg QD), DLBCL subject): 28 days
- subjects showing no DLT or disease progression ([1]; cohort 2 (250 mg), three subjects): Two of the three
- progressive disease after ([1]; cohort 3 (400 mg QD), two CLL patients, one value per patient, listed as API, besylate): 168 days and 231 days
- patients showing no DLT or disease progression ([1]; cohort 3 (400 mg), six subjects, one MZL, two CLL): Three
- progressive disease after ([1]; cohort 4 (625 mg QD), DLBCL patient): 33 days
- progressive disease after ([1]; cohort 4 (625 mg QD), mantle cell lymphoma patient): 105 days
- progressive disease after ([1]; cohort 4 (625 mg QD), two follicular lymphoma patients, one value per patient, listed as API, besylate): 56 days and 212 days
- patients showing no DLT or disease progression ([1]; cohort 4 (625 mg), six subjects, follicular lymphoma): One
- progressive disease after ([1]; cohort 5 (750 mg QD), MLBCL patient): 64 days
- patients showing no DLT or disease progression ([1]; cohort 5 (750 mg), six subjects): Five
- patients showing no DLT or disease progression ([1]; cohorts 6A and 6B (1000 mg QD / 375 mg BID), twelve subjects, as of Sep. 11, 2012): eleven
- PK exposure (AUClast) ([2]; Day 1 to 15, once daily oral dosing): linear with no accumulation
- PK ([2]; once daily oral dosing): predictable with no accumulation
- solubility (Solubility of the API; ethanol, organic solvent or mixture, read-out: solubility in ethanol): ~10000 µg/mL
- solubility (Solubility of the API; water, read-out: solubility in water): ~160 µg/mL
- patients showing no DLT [3]: Twenty-four
- B-NHL patients with decreased lymph node size (B-NHL patients): Six
- environmental instabilities (i.e. heat, acid, base) that require special handling [4]: no environmental instabilities
- CLL patients with early increases (≧25%) in absolute lymphocyte counts (ALC) (CLL patients; of fifteen (15) CLL patients in cohorts 1-6A/B, first 28-day cycle, as of Sep. 11, 2012): 11 patients
- CLL patients with between 25 and 50% reduction of lymph node size (CLL patients; [8]): 6/12
- CLL patients with nodal response (>50% reduction of lymph node size) (CLL patients; [8]): 2/12
- progressive disease after ([5]; cohort C, 750 mg po QD, one patient): 73 days
- patients showing no disease progression ([5]; cohort C, 24 subjects, 750 mg po QD): twenty-three
- CLL patients with between 25 and 50% reduction of lymph node size [5, 9]: 6/11
- CLL patients with nodal response (>50% reduction of lymph node size) [5, 9]: 1/11
- CLL patients with early increases (≧25%) in absolute lymphocyte counts (ALC) ([5]; of eighteen (18) patients in Expansion Cohort C, 750 mg QD, first 28-day cycle): 17 patients
- treatment emergent AE: grade 1 or 2 headache [6, 10]: 23.8%
- treatment emergent AE: thrombocytopenia [6, 10]: 23.8%
- treatment emergent AE: grade 1 or 2 transient diarrhea ([6]; 15/21 subjects, regardless of dose): 71.4%
- other DLTs ([6]; besides the follicular lymphoma patient in cohort 3): no other DLTs have occurred
- serious adverse event not related to the study: disseminated Herpes zoster ([6]; cohort 1): 1 patient
- serious adverse event not related to the study: pneumonia ([6]; cohort 1): 1 patient
- incidence of abdominal distension ([6]; cohort 1, 125 mg QD): 1 patient
- incidence of contusion (bruising) ([6]; cohort 1, 125 mg QD): 2 patients
- incidence of diarrhea ([6]; cohort 1, 125 mg QD): 3 patients
- incidence of dyspepsia ([6]; cohort 1, 125 mg QD): 1 patient
- incidence of dyspnea ([6]; cohort 1, 125 mg QD): 1 patient
- incidence of fatigue ([6]; cohort 1, 125 mg QD): 2 patients
- incidence of headache ([6]; cohort 1, 125 mg QD): 2 patients
- incidence of jaw pain ([6]; cohort 1, 125 mg QD): 1 patient
- incidence of lymph node pain ([6]; cohort 1, 125 mg QD): 2 patients
- incidence of muscle spasm ([6]; cohort 1, 125 mg QD): 1 patient
- incidence of nausea ([6]; cohort 1, 125 mg QD): 1 patient
- incidence of pneumonia ([6]; cohort 1, 125 mg QD): 1 patient
- incidence of rash ([6]; cohort 1, 125 mg QD): 1 patient
- incidence of sinusitis ([6]; cohort 1, 125 mg QD): 1 patient
- incidence of thrombocytopenia ([6]; cohort 1, 125 mg QD): 1 patient
- incidence of upper respiratory infection ([6]; cohort 1, 125 mg QD): 2 patients
- incidence of urticaria ([6]; cohort 1, 125 mg QD): 1 patient
- incidence of weight loss ([6]; cohort 1, 125 mg QD): 1 patient
- serious adverse event not related to the study: atrial fibrillation ([6]; cohort 2): 1 patient
- incidence of abdominal distension ([6]; cohort 2, 250 mg QD): 1 patient
- incidence of cough ([6]; cohort 2, 250 mg QD): 1 patient
- incidence of decreased diarrhea ([6]; cohort 2, 250 mg QD): 2 patients
- incidence of dysgeusia ([6]; cohort 2, 250 mg QD): 1 patient
- incidence of dyspnea ([6]; cohort 2, 250 mg QD): 1 patient
- incidence of fatigue ([6]; cohort 2, 250 mg QD): 1 patient
- incidence of nausea ([6]; cohort 2, 250 mg QD): 1 patient
- incidence of neutropenia ([6]; cohort 2, 250 mg QD): 1 patient
- incidence of pneumonia ([6]; cohort 2, 250 mg QD): 1 patient
- incidence of weight loss ([6]; cohort 2, 250 mg QD): 1 patient
- serious adverse event not related to the study: hematuria/urinary retention ([6]; cohort 3): 1 patient
- serious adverse event not related to the study: pneumonia/thrombocytopenia/ANC decreased ([6]; cohort 3): 1 patient
- dose limiting toxicity ([6]; cohort 3 (400 mg QD), follicular lymphoma subject, first 28-day cycle): thrombocytopenia (low platelet count; Grade 4)
- incidence of anemia ([6]; cohort 3, 400 mg QD): 1 patient
- incidence of cough ([6]; cohort 3, 400 mg QD): 2 patients
- incidence of diarrhea ([6]; cohort 3, 400 mg QD): 4 patients
- incidence of fatigue ([6]; cohort 3, 400 mg QD): 1 patient
- incidence of headache ([6]; cohort 3, 400 mg QD): 1 patient
- incidence of influenza-like illness ([6]; cohort 3, 400 mg QD): 1 patient
- incidence of insomnia ([6]; cohort 3, 400 mg QD): 1 patient
- incidence of jaw pain ([6]; cohort 3, 400 mg QD): 1 patient
- incidence of muscle spasm ([6]; cohort 3, 400 mg QD): 1 patient
- incidence of neutropenia ([6]; cohort 3, 400 mg QD): 2 patients
- incidence of pneumonia ([6]; cohort 3, 400 mg QD): 1 patient
- incidence of rash ([6]; cohort 3, 400 mg QD): 1 patient
- incidence of thrombocytopenia ([6]; cohort 3, 400 mg QD): 3 patients
- incidence of upper respiratory infection ([6]; cohort 3, 400 mg QD): 2 patients
- incidence of urinary retention ([6]; cohort 3, 400 mg QD): 1 patient
- incidence of urticaria ([6]; cohort 3, 400 mg QD): 1 patient
- serious adverse event not related to the study: tonsillar hypertrophy ([6]; cohort 4): 1 patient
- neutropenia (adverse event) leading to discontinuation, after ([6]; cohort 4 (625 mg QD), CLL patient, after three cycles): 85 days
- incidence of abdominal pain ([6]; cohort 4, 625 mg QD): 2 patients
- incidence of anemia ([6]; cohort 4, 625 mg QD): 1 patient
- incidence of dehydration ([6]; cohort 4, 625 mg QD): 2 patients
- incidence of diarrhea ([6]; cohort 4, 625 mg QD): 5 patients
- incidence of dysgeusia ([6]; cohort 4, 625 mg QD): 2 patients
- incidence of dyspepsia ([6]; cohort 4, 625 mg QD): 2 patients
- incidence of eye pain ([6]; cohort 4, 625 mg QD): 2 patients
- incidence of headache ([6]; cohort 4, 625 mg QD): 2 patients
- incidence of influenza-like illness ([6]; cohort 4, 625 mg QD): 1 patient
- incidence of insomnia ([6]; cohort 4, 625 mg QD): 1 patient
- incidence of nausea ([6]; cohort 4, 625 mg QD): 2 patients
- incidence of neutropenia ([6]; cohort 4, 625 mg QD): 1 patient
- incidence of sinusitis ([6]; cohort 4, 625 mg QD): 1 patient
- incidence of thrombocytopenia ([6]; cohort 4, 625 mg QD): 1 patient
- incidence of urinary retention ([6]; cohort 4, 625 mg QD): 1 patient
- incidence of abdominal pain [6, 11]: 1 patient
- incidence of diarrhea [6, 11]: 1 patient
- Grade 3-4 neutropenia [6, 12]: 3 patients
- Grade 3-4 pneumonia [6, 12]: 2 patients
- Grade 3-4 thrombocytopenia [6, 12]: 4 patients
- maximum tolerated dose (MTD) [6]: not yet been reached
- maximum tolerated dose (MTD) ([6]; listed as API): not been reached
- severity of adverse events reported ([6]; except for decreased ANC (neutropenia), pneumonia and thrombocytopenia): Grade 1 and 2
- Grade 3/4 adverse event: neutropenia ([6]; subjects/21, probably related): 3/21
- Grade 3/4 adverse event: pneumonia ([6]; subjects/21, probably related): 2/21
- Grade 3/4 adverse event: thrombocytopenia ([6]; subjects/21, probably related): 4/21

SMILES: COc1cc(Nc2ncc(F)c(Nc3ccc4c(n3)N(COP(=O)(O)O)C(=O)C(C)(C)O4)n2)cc(OC)c1OC [fostamatinib disodium]
- clinical response [7]: clinical responses
